From article PMC6145916, “Interaction of mitochondrial fission factor with dynamin related protein 1 governs physiological mitochondrial function in vivo” (Scientific Reports, 2018)
Where no end group is shown, it is not given here.

What was measured:
[1] = system: E17 primary cortical neurons; assay: Mitochondrial morphology (Tom20), primary cortical neurons; type: cell-based, rat; details: 1 µM P259, two-hour treatment; n = 3, 10 images each
Method: Bottom, quantification of the form factor (degree of branching) and aspect ratio (major/minor axis length). At least 10,000 mitochondrial fragments were analyzed for each condition. Mitochondrial reactive oxygen species production (MitoSox Red) (b) and membrane potential (TMRM) (c) after overnight treatment with indicated concentrations of peptide (n = 3, with 3 replicates). […] Overlay of live microscopy imaging at time 0 (green) and 150 (red) seconds. […] An estimation of the % mobile mitochondria from the Pearson coefficient of each set of images. Data are mean ± s.e.
(§1) Human neuroblastoma SH-SY5Y cells purchased from ATCC were cultured in a 50/50 mixture of […]
(§2) using SH-SY5Y cells were carried out in the same growth medium with the exception of using […]
(§3) Wild-type and MFF knockout mouse embryonic fibroblast (MEF) cells were generously provided by Professor David Chan. […]
(§4) an NCBI protein blast of the P259 sequence ([…]) was performed across the human genome database and the top 75 gene query hits were recorded.7 The orthologs of each available gene were obtained from the Ensembl database.8 Of the resulting 75 human gene hits, 37 had […]
The effect of peptides on GTPase activity of Drp1 was measured by incubating recombinant Drp1 […]
for 1 hour at 37 °C. GTPase activity was measured using a colorimetric GTPase assay kit (Novus Biologicals, CO, USA) as instructed by the manufacturer. […]

[2] = system: Huntington's disease patient-derived fibroblasts; assay: Mitochondrial ROS (MitoSox) in HD patient-derived fibroblasts; type: cell-based, human; details: indicated peptide concentration daily for three days, normalized to healthy fibroblast control; 3 independent experiments
Method: (DNM1L) and MFF genes. a.
DNM1L and MFF throughout evolution. NCBI PSI -BLAST was performed for the human […]
corresponding to the human gene. c.
DNM1L and 7/7 isoforms of MFF. d. […]
affect mitochondrial fusion measured by photoconvertible den dra2 protein. Mito -dendra2 […]
The initial image following […]
species production (MitoSox). d.
Data are of 3 independent experiments with the whiskers calculated by the Turkey method. e. […]
production in an Mff -dependent manner. Mitochondrial reactive oxygen species production […]
treatment in each cell line. […]
determined by an unpaired, two -tailed t test). g. […]
control (no peptide treatment). Data are mean ± s.e. from 3 independent experiments.
as §1, §2, §3, §4
calculated as the average MitoSox signal per cell. […]

Which mitochondrial morphology [1] does the source give for “YGRKKRRQRRRGSGIIQLPEIVVV-NH2 (C-terminus assumed) [P259]” here?
Its mitochondrial morphology is “more elongated and branched mitochondria”.

And the “mitochondrial ROS” value [2]?
Its value is “further increased mitochondrial ROS”.
